Assay results from patent US20240239798A1, “SALTS AND POLYMORPHS OF M[…] 3-DEUTEROMITRAGYNINE” (priority 2021, published 2024).
≈ marks a conversion by molar mass, not a printed value. Structures can show the parent of a compound that is named as a salt. Where two headings read alike, the source gives them in different places.

Legend:
[1] = Batch 810081-28-B
[2] = cited from earlier work
[3] = Solubility of 3-DM free base and 3-DM Glycolate Type A in IPA and IPA/H2O (19:1, v/v) at 5, 20, 40, 60° C., 24 hrs; assay type: physicochemical
[4] = assay type: physicochemical; conditions: for solubility: organic solvent or mixture, read-out: Approximate solubility
Protocol: In the first batch (100 mg scale), pure IPA was used as solvent. […] Detailed preparation procedures for the 3 scaled-up batches can be found below.

[5] = Approximate solubility of amorphous 3-DM free base starting material in 27 solvent systems at RT; assay type: physicochemical
Protocol: The approximate solubility of the free base starting material was determined in 27 solvent systems at RT. Approximate 2 mg of material was added into a 3-mL glass vial. […] The solubility results summarized in Table 10 were used to guide the solvent selection in salt screening design.

[6] = Background statements on solubility and gel formation in aqueous solution; assay type: physicochemical

O=C(O)CO.[2H]C12CC(C(=COC)C(=O)OC)C(CC)CN1CCc1c2[nH]c2cccc(OC)c12 (centres unmarked)
D10 ([1]; sonication time 0 s): 7.51 μm | D50 ([1]; sonication time 0 s): 19.96 μm | D90 ([1]; sonication time 0 s): 58.66 μm | MV ([1]; sonication time 0 s): 28.68 μm | D10 ([1]; sonication time 30 s (30 Watt)): 5.92 μm | D50 ([1]; sonication time 30 s (30 Watt)): 15.93 μm | D90 ([1]; sonication time 30 s (30 Watt)): 47.05 μm | MV ([1]; sonication time 30 s (30 Watt)): 22.77 μm

CC[C@@H]1CN2CCc3c([nH]c4cccc(OC)c34)[C@H]2C[C@@H]1/C(=C\OC)C(=O)OC (stereo in doubt) [mitragynine hydrochloride]
Behaviour in aqueous solution ([2]; aqueous solution): form a gel

[2H]C12CC(C(=COC)C(=O)OC)C(CC)CN1CCc1c2[nH]c2cccc(OC)c12 (centres unmarked) [3-DM Free Base Type A]
Solubility in IPA/H2O (19:1, v/v) compared with IPA [3]: higher than IPA | equilibrium solubility ([3]; IPA/H2O (19:1, v/v) at 60° C.): 73.94 mg/mL

O=C(O)CO.[2H][C@@]12C[C@H](/C(=C\OC)C(=O)OC)[C@H](CC)CN1CCc1c2[nH]c2cccc(OC)c12 [3-DM Glycolate]
Results (forms obtained) (Grind, 4 experiments): Glycolate Type A | Results (forms obtained) (Liquid-vapor diffusion, 12 experiments): Glycolate Type A, B, D, A + C | Results (forms obtained) (Slow cooling, 6 experiments): Glycolate Type A, B, C | Results (forms obtained) (Slow evaporation, 7 experiments): Glycolate Type A, C, E | Results (forms obtained) (Slurry at 50° C., 16 experiments): Glycolate Type A, C | Results (forms obtained) (Slurry at RT, 25 experiments): Glycolate Type A | Results (forms obtained) (Solid vapor diffusion, 12 experiments): Glycolate Type A, C

[2H][C@@]12C[C@H](/C(=C\OC)C(=O)OC)[C@H](CC)CN1CCc1c2[nH]c2cccc(OC)c12 [3-DM free base, 3-deuteromitragynine]
solubility ([4]; EtOAc): > 40 mg/mL | solubility ([4]; EtOH): > 38 mg/mL | Solubility in IPA (in words) ([4]; IPA, approximate): high solubility | solubility ([4]; IPA): > 36 mg/mL | solubility ([4]; MeOH): > 46 mg/mL | solubility ([4]; acetone): > 38 mg/mL | solubility ([4]; acetone/n-heptane (1:1) v/v): > 42 mg/mL | Solubility compared with Glycolate Type A ([3]; IPA and IPA/H2O (19:1, v/v), each temperature (5-60° C.)): much higher than that of Glycolate Type A | solubility ([5]; organic solvent or mixture, thermodynamic from solid, 1,4-dioxane, RT): > 42 mg/mL | solubility ([5]; organic solvent or mixture, thermodynamic from solid, 2-MeTHF, RT): > 48 mg/mL | solubility ([5]; organic solvent or mixture, thermodynamic from solid, ACN, RT): > 46 mg/mL | solubility ([5]; organic solvent or mixture, thermodynamic from solid, Acetone, RT): > 38 mg/mL | solubility ([5]; organic solvent or mixture, thermodynamic from solid, Acetone/n-Heptane (1:1), RT): > 38 mg/mL | solubility ([5]; organic solvent or mixture, thermodynamic from solid, Acetone/n-Heptane (1:4), RT): > 46 mg/mL | solubility ([5]; organic solvent or mixture, thermodynamic from solid, Acetone/n-Heptane (1:9), RT): 7.7 to 23 mg/mL (≈ 19.3 to 57.6 mM) | solubility ([5]; organic solvent or mixture, thermodynamic from solid, Acetone/n-Heptane (1:15), RT): 4 to 6.7 mg/mL (≈ 10 to 16.8 mM) | solubility ([5]; organic solvent or mixture, thermodynamic from solid, Acetone/n-Heptane (4:1), RT): > 42 mg/mL | solubility ([5]; organic solvent or mixture, thermodynamic from solid, CHCl3, RT): > 46 mg/mL | solubility ([5]; organic solvent or mixture, thermodynamic from solid, DCM, RT): > 42 mg/mL | solubility ([5]; organic solvent or mixture, thermodynamic from solid, DMAc, RT): > 46 mg/mL | solubility ([5]; organic solvent or mixture, thermodynamic from solid, DMSO, RT): > 34 mg/mL | solubility ([5]; organic solvent or mixture, thermodynamic from solid, EtOAc, RT): > 40 mg/mL | solubility ([5]; organic solvent or mixture, thermodynamic from solid, EtOH, RT): > 38 mg/mL | solubility ([5]; organic solvent or mixture, thermodynamic from solid, IPA, RT): > 36 mg/mL | solubility ([5]; organic solvent or mixture, thermodynamic from solid, IPA/H2O (4:1), RT): 7 to 21 mg/mL (≈ 17.5 to 52.6 mM) | solubility ([5]; organic solvent or mixture, thermodynamic from solid, IPA/H2O (9:1), RT): 23 to 46 mg/mL (≈ 57.6 to 115 mM) | solubility ([5]; organic solvent or mixture, thermodynamic from solid, IPAc, RT): > 42 mg/mL | solubility ([5]; organic solvent or mixture, thermodynamic from solid, MIBK, RT): > 40 mg/mL | solubility ([5]; organic solvent or mixture, thermodynamic from solid, MTBE, RT): > 46 mg/mL | solubility ([5]; organic solvent or mixture, thermodynamic from solid, MeOH, RT): > 46 mg/mL | solubility ([5]; organic solvent or mixture, thermodynamic from solid, NMP, RT): > 44 mg/mL | solubility ([5]; organic solvent or mixture, thermodynamic from solid, THF, RT): > 40 mg/mL | solubility ([5]; organic solvent or mixture, thermodynamic from solid, Toluene, RT): > 36 mg/mL | solubility ([5]; organic solvent or mixture, thermodynamic from solid, n-Heptane, RT): < 2.3 mg/mL | solubility ([5]; water, thermodynamic from solid, H2O, RT): < 2.3 mg/mL

Cl.[2H]C12CC(C(=COC)C(=O)OC)C(CC)CN1CCc1c2[nH]c2cccc(OC)c12 (centres unmarked) [3-DM hydrochloride salt]
Behaviour in aqueous solution [6]: forms a gel

CC[C@@H]1CN2CCc3c([nH]c4cccc(OC)c34)[C@@H]2C[C@@H]1/C(=C\OC)C(=O)OC [Mitragynine]
Solubility in conventional organic solvents (in words) ([2]; acetone, acetic acid, alcohols, chloroform and diethyl ether): soluble | Solubility in water (in words) ([2]; water): insoluble
